Results reported in patent publication US20200261440A1, “ZINC IONOPHORES AND USES THEREOF” (THE UNIVERSITY OF QUEENSLAND, priority 2017, published 2020).
Values after ≈ are worked out from the molar mass of the structure shown. Read-outs that look alike come from different tables or passages of the source. Values belong to the compound of their own block, whether it stands above or below them.

Tests used:
GAS = test: Drop test assay, growth on THY agar; assay type: cell-based, Streptococcus pyogenes; settings: PBT2 (1.5 μM), zinc(II) ions (400 μM)
Protocol: (§1) FIG. 1a illustrates growth of GAS, MRSA and VRE on THY agar in the presence or absence of PBT2 (1.5 μM) and zinc(II) ions (400 μM).
(§2) Bacteria were diluted from overnight cultures to get a starting OD600 of 0.01 in THY. Once the bacteria grew to an OD600 of 0.6, the culture were serially diluted in PBS and 5 μL of each dilution (undiluted, 10^−1, 10^−2, 10^−3, 10^−4, 10^−5) was plated on THY agar plates with or without zinc (400 μM) and/or PBT2 ([…]). Plates were incubated at 37° C. overnight. Drop tests were undertaken in biological triplicates.

[1] = tested on: Methicillin-resistant Staphylococcus aureus (MRSA) strain USA300; test: MIC by broth microdilution (CLSI)
Protocol: GAS HKU16, MRSA USA300, VRE RBWH1, Klebsiella pneumoniae strain MS6771, E. coli strain MS8345 and Streptococcus pneumoniae strain 23F were grown in Todd-Hewitt broth (THB) or agar with 1% yeast extract (THY) [Todd, E. W. & Hewitt, L. F. A new culture medium for the production of antigenic streptococcal haemolysin. […] Bacteria were routinely grown at 37° C. in ambient air.
MICs were determined by broth microdilution in accordance to CLSI guidelines (“Methods for Dilution Antimicrobial Susceptibility Tests for Bacteria That Grow Aerobically”, Clinical and Laboratory Standards Institute) [Clinical and Laboratory Standards Institute. […] For MRSA, VRE, Klebsiella pneumoniae and E. coli the assays were performed in MHB, and for GAS and Streptococcus pneumoniae MHB+2.5% lysed horse blood (LHB) was used. The bacterial inoculum was prepared by direct colony suspension aiming for 2-8×10^5 colony forming units (CFU)/mL bacteria per well. Antibiotics/compounds were serially diluted two-fold across the 96-well plate, the last column contained no antibiotics/compounds. The inoculum was added to the plate containing antibiotic/compound and incubated for 16-24 h at 35+/−2° C. […] MIC assays were carried out in biological triplicates.
Using Clinical and Laboratory Standards Institute guidelines for antimicrobial sensitivity testing [Clinical and Laboratory Standards Institute.

MRSA = test: Drop test assay, growth on THY agar; assay type: cell-based, Staphylococcus aureus; settings: PBT2 (1.5 μM), zinc(II) ions (400 μM)
Protocol: as §1, §2

VRE = test: Drop test assay, growth on THY agar; assay type: cell-based, Enterococcus; settings: PBT2 (1.5 μM), zinc(II) ions (400 μM)
Protocol: as §1, §2

[2] = tested on: Vancomycin-resistant Enterococci (VRE) clinical isolate RBWH1; test: MIC by broth microdilution (CLSI); assay type: cell-based, Enterococcus
Protocol: (§3) J. Path. Bact. […] Proc. Soc.
(§4) MIC assays were carried out in biological triplicates.
(§5) M100 Performance Standards for Antimicrobial Susceptibility Testing, 27th Edition.

[3] = tested on: GAS strain HKU16 (Streptococcus pyogenes strain HKU16); test: microbe, parasite or virus in culture; assay type: cell-based; settings: GAS HKU 16; substance alone
Protocol: as §3, §4, §5

[4] = tested on: Streptococcus pneumoniae 23F; test: MIC by broth microdilution (CLSI); assay type: cell-based; settings: Streptococcus pneumoniae, 23F, read-out: MIC
[5] = tested on: Klebsiella pneumoniae strain MS6771; test: MIC by broth microdilution (CLSI); assay type: cell-based; settings: Klebsiella pneumoniae, read-out: MIC

SMILES: [Zn+2] [Zinc(II) ion]
antibacterial activity (GAS): neither PBT2 nor zinc(II) ions (in the form of zinc chloride) displayed antibacterial activity
MIC ([1]; MRSA USA300, substance alone): 3000 µM
antibacterial activity (MRSA): neither PBT2 nor zinc(II) ions (in the form of zinc chloride) displayed antibacterial activity
antibacterial activity (VRE): neither PBT2 nor zinc(II) ions (in the form of zinc chloride) displayed antibacterial activity
MIC ([2]; VRE RBWH1, substance alone): 3000 µM
MIC [3]: 2000 µM

MIC ([4]; PBT2: 0 μM, Zinc: 0 μM): 8 µg/mL (≈ 22.9 µM)
MIC ([4]; PBT2: 8 μM, Zinc: 32 μM): 1 µg/mL (≈ 2.86 µM)
MIC ([4]; PBT2: 8 μM): 8 µg/mL (≈ 22.9 µM)
MIC ([4]; Zinc: 32 μM): 8 µg/mL (≈ 22.9 µM)
MIC ([1]; Staphylococcus aureus, MRSA USA300, CQ: 0 μM, Zinc: 0 μM): > 128 µg/mL
MIC ([1]; Staphylococcus aureus, MRSA USA300, CQ: 1 μM): > 128 µg/mL
MIC ([1]; Staphylococcus aureus, MRSA USA300, CQ: 1 μM, Zinc: 32 μM): 1 µg/mL
MIC ([1]; Staphylococcus aureus, MRSA USA300, PBT2: 0 μM, Zinc: 0 μM): > 128 µg/mL
MIC ([1]; Staphylococcus aureus, MRSA USA300, PBT2: 2 μM): > 128 µg/mL
MIC ([1]; Staphylococcus aureus, MRSA USA300, PBT2: 2 μM, Zinc: 50 μM): 2 µg/mL
MIC ([1]; Staphylococcus aureus, MRSA USA300, Zinc: 32 μM): > 128 µg/mL
MIC ([1]; Staphylococcus aureus, MRSA USA300, Zinc: 50 μM): > 128 µg/mL
MIC ([1]; Staphylococcus aureus, MRSA|USA300, MRSA, RA-HQ-12: 0 μM, Zn: 0 μM, oxacillin with 2% NaCl): > 128 µg/mL
MIC ([1]; Staphylococcus aureus, MRSA|USA300, MRSA, RA-HQ-12: 3.5 μM, Zn: […], oxacillin with 2% NaCl): > 128 µg/mL
MIC ([1]; Staphylococcus aureus, MRSA|USA300, MRSA, RA-HQ-12: 3.5 μM, oxacillin with 2% NaCl): > 128 µg/mL
MIC ([5]; MS6771, K. pneumoniae, RA-HQ-12: 0 μM, Zn: 0 μM): > 128 µg/mL
MIC ([5]; MS6771, K. pneumoniae, RA-HQ-12: 16 μM, Zn: 64 μM): > 128 µg/mL
MIC ([5]; MS6771, K. pneumoniae, RA-HQ-12: 16 μM): > 128 µg/mL
MIC ([5]; MS6771, K. pneumoniae, Zn: 64 μM): > 128 µg/mL
MIC ([5]; MS6771, Klebsiella pneumoniae, CQ: 0 μM, Zinc: 0 μM): > 128 µg/mL
MIC ([5]; MS6771, Klebsiella pneumoniae, CQ: 64 μM, Zinc: 256 μM): > 128 µg/mL
MIC ([5]; MS6771, Klebsiella pneumoniae, CQ: 64 μM): > 128 µg/mL
MIC ([5]; MS6771, Klebsiella pneumoniae, PBT2: 0 μM, Zinc: 0 μM): > 128 µg/mL
MIC ([5]; MS6771, Klebsiella pneumoniae, PBT2: 64 μM, Zinc: 256 μM): > 128 µg/mL
MIC ([5]; MS6771, Klebsiella pneumoniae, PBT2: 64 μM): > 128 µg/mL
MIC ([5]; MS6771, Klebsiella pneumoniae, Zinc: 256 μM (CQ panel)): > 128 µg/mL
MIC ([5]; MS6771, Klebsiella pneumoniae, Zinc: 256 μM (PBT2 panel)): > 128 µg/mL
MIC ([2]; Enterococcus, VRE, RA-HQ-12: 3.5 μM, Zn: […], read-out: MIC): > 128 µg/mL
MIC ([2]; Enterococcus, VRE, RA-HQ-12: 3.5 μM, read-out: MIC): > 128 µg/mL
MIC ([2]; Enterococcus, VRE, Zn: […] (RA-HQ-12 panel), read-out: MIC): > 128 µg/mL
MIC ([2]; Enterococcus, VRE, RA-HQ-12: 0 μM, Zn: 0 μM, read-out: MIC): > 128 µg/mL
SMILES: CC1(C)S[C@@H]2[C@H](NC(=O)[C@H](N)c3ccccc3)C(=O)N2[C@H]1C(=O)O [Ampicillin, ampicillin]
antibiotic sensitivity of resistant strain ([1]; MRSA USA300, addition of sub-inhibitory PBT2+zinc(II) ions): became sensitive
